Data: ChEMBL document CHEMBL4118098, “Discovery of DS28120313 as a potent orally active hepcidin production inhibitor: Design and optimization of novel 4,6-disubstituted indazole derivatives” (Bioorg Med Chem Lett, 2017)

Columns and labels:
[1] = target: Mitogen-activated protein kinase 14 (Homo sapiens) (UniProt Q16539); assay: Inhibition of p38a (unknown origin) at 0.164 uM relative to control
[2] = target: Protein kinase C eta type (Homo sapiens) (UniProt P24723); assay: Inhibition of PKC-eta (unknown origin) at 0.164 uM relative to control
[3] = target: Tyrosine-protein kinase JAK2 (Homo sapiens) (UniProt O60674); assay: Inhibition of JAK2 (unknown origin) at 0.164 uM relative to control
[4] = target: T1, Protein kinase C iota type (Homo sapiens) (UniProt P41743); assay: Inhibition of PKC-iota (unknown origin) at 0.164 uM relative to control
T1 sequence (whole entry): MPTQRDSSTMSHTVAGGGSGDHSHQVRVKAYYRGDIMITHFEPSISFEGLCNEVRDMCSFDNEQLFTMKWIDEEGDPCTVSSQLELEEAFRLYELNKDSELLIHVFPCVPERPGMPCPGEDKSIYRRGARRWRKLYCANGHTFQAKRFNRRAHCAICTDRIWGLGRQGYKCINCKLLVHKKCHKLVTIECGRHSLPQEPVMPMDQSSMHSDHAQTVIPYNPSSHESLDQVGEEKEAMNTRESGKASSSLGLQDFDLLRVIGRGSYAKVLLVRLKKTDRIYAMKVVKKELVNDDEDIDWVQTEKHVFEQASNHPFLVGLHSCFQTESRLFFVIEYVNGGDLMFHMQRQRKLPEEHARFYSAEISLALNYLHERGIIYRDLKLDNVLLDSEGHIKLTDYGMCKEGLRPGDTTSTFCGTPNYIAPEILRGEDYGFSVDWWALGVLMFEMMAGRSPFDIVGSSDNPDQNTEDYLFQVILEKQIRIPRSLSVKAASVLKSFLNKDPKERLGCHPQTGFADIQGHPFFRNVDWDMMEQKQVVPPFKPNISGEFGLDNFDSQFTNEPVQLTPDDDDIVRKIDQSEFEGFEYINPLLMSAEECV

[5] = target: Death-associated protein kinase 3 (Homo sapiens) (UniProt O43293); assay: Inhibition of ZIPK (unknown origin) at 0.164 uM relative to control
[6] = target: Serine/threonine-protein kinase PAK 2 (Homo sapiens) (UniProt Q13177); assay: Inhibition of PAK2 (unknown origin) at 0.164 uM relative to control
[7] = target: Epidermal growth factor receptor (Homo sapiens) (UniProt P00533); assay: Inhibition of EGFR (unknown origin) at 0.164 uM relative to control
[8] = target: Ephrin type-A receptor 3 (Homo sapiens) (UniProt P29320); assay: Inhibition of EPHA3 (unknown origin) at 0.164 uM relative to control
[9] = system: Tyrosine-protein kinase ABL1 (Homo sapiens), P00519 [G250E]; assay: Inhibition of ABL1 G250E mutant (unknown origin) at 0.164 uM relative to control
[10] = target: Receptor tyrosine-protein kinase erbB-4 (Homo sapiens) (UniProt Q15303); assay: Inhibition of HER4 (unknown origin) at 0.164 uM relative to control
[11] = target: Serine/threonine-protein kinase Nek9 (Homo sapiens) (UniProt Q8TD19); assay: Inhibition of NEK9 (unknown origin) at 0.164 uM relative to control
[12] = system: Receptor-type tyrosine-protein kinase FLT3 (Homo sapiens), P36888 [D835Y]; assay: Inhibition of Flt3 D835Y mutant (unknown origin) at 0.164 uM relative to control
[13] = target: Homeodomain-interacting protein kinase 4 (Homo sapiens) (UniProt Q8NE63); assay: Inhibition of HIPK4 (unknown origin) at 0.164 uM relative to control
[14] = target: T2, Tyrosine-protein kinase TXK (Homo sapiens) (UniProt P42681); assay: Inhibition of TXK (unknown origin) at 0.45 uM relative to control
T2 sequence (whole entry): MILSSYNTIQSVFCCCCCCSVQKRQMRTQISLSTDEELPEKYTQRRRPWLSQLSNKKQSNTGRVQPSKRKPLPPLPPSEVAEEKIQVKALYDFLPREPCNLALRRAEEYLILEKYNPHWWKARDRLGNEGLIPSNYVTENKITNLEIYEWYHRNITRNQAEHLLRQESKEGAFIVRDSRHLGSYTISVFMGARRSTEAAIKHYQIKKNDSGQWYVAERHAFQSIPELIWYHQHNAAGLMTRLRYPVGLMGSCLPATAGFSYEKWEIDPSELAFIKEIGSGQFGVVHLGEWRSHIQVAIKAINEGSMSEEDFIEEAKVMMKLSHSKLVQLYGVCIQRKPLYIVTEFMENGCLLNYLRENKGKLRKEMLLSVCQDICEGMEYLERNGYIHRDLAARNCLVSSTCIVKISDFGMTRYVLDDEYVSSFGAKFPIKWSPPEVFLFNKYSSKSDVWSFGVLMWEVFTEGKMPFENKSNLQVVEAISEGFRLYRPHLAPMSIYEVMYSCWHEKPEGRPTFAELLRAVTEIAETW

[15] = target: Casein kinase I isoform gamma-3 (Homo sapiens) (UniProt Q9Y6M4); assay: Inhibition of CK1-gamma3 (unknown origin) at 0.45 uM relative to control
[16] = target: Activated CDC42 kinase 1 (Homo sapiens) (UniProt Q07912); assay: Inhibition of ACK (unknown origin) at 0.45 uM relative to control
[17] = target: Calcium/calmodulin-dependent protein kinase type II subunit alpha (Homo sapiens) (UniProt Q9UQM7); assay: Inhibition of CaMK2a (unknown origin) at 0.19 uM relative to control
[18] = target: Dual specificity tyrosine-phosphorylation-regulated kinase 1A (Homo sapiens) (UniProt Q13627); assay: Inhibition of DYRK1a (unknown origin) at 0.19 uM relative to control
[19] = target: Tyrosine-protein kinase Lyn (Homo sapiens) (UniProt P07948); assay: Inhibition of LYNB (unknown origin) at 0.19 uM relative to control
[20] = target: PAS domain-containing serine/threonine-protein kinase (Homo sapiens) (UniProt Q96RG2); assay: Inhibition of PASK (unknown origin) at 0.19 uM relative to control
[21] = target: Tyrosine-protein kinase Srms (Homo sapiens) (UniProt Q9H3Y6); assay: Inhibition of SRM (SRMS) (unknown origin) at 0.19 uM relative to control
[22] = target: cAMP-dependent protein kinase catalytic subunit PRKX (Homo sapiens) (UniProt P51817); assay: Inhibition of PRKX (unknown origin) at 0.19 uM relative to control
[23] = target: Serine/threonine-protein kinase Nek1 (Homo sapiens) (UniProt Q96PY6); assay: Inhibition of NEK1 (unknown origin) at 0.19 uM relative to control
[24] = target: Tyrosine-protein kinase Fer (Homo sapiens) (UniProt P16591); assay: Inhibition of Fer (unknown origin) at 0.19 uM relative to control
[25] = target: Phosphorylase b kinase gamma catalytic chain, skeletal muscle/heart isoform (Homo sapiens) (UniProt Q16816); assay: Inhibition of PhKg1 (unknown origin) at 0.19 uM relative to control

Sequence of Activated CDC42 kinase 1 (Homo sapiens) (Q07912 whole entry, looked up): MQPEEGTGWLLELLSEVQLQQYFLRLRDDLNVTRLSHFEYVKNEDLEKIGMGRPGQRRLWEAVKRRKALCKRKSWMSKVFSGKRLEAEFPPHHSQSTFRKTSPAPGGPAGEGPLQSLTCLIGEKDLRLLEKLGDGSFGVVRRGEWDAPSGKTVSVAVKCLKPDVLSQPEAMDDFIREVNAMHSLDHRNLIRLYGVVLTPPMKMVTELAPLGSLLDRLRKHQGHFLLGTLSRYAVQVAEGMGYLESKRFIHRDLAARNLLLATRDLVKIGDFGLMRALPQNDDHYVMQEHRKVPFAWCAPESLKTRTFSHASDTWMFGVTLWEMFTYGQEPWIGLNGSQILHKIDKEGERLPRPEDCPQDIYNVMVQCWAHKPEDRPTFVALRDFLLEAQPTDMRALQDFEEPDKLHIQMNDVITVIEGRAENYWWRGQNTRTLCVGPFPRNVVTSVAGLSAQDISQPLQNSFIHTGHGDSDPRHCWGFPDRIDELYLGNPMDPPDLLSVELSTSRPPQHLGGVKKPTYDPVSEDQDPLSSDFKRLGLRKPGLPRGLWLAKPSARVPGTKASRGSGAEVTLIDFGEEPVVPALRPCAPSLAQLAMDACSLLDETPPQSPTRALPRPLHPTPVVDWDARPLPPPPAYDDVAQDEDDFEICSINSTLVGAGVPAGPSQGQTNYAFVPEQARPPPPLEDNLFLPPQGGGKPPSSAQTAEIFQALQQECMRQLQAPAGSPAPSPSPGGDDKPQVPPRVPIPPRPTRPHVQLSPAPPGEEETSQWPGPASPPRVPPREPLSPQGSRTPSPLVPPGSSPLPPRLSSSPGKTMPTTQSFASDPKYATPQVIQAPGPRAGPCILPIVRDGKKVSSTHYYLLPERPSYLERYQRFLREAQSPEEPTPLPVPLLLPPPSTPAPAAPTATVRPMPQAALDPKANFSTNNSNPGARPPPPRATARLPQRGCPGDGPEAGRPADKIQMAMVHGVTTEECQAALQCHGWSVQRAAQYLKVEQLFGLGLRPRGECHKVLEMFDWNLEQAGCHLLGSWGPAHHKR
Sequence of cAMP-dependent protein kinase catalytic subunit PRKX (Homo sapiens) (P51817 whole entry): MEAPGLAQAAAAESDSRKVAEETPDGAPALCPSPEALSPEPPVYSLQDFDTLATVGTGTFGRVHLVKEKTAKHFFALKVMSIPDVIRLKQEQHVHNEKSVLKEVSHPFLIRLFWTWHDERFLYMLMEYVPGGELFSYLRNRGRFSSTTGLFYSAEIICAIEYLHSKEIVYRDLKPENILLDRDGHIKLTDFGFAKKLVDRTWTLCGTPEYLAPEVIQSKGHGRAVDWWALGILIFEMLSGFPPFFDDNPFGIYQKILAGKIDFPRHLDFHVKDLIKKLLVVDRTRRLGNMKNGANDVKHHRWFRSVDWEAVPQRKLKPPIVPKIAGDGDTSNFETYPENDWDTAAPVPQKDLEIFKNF
Sequence of Tyrosine-protein kinase Lyn (Homo sapiens) (P07948 2-512 limits assumed): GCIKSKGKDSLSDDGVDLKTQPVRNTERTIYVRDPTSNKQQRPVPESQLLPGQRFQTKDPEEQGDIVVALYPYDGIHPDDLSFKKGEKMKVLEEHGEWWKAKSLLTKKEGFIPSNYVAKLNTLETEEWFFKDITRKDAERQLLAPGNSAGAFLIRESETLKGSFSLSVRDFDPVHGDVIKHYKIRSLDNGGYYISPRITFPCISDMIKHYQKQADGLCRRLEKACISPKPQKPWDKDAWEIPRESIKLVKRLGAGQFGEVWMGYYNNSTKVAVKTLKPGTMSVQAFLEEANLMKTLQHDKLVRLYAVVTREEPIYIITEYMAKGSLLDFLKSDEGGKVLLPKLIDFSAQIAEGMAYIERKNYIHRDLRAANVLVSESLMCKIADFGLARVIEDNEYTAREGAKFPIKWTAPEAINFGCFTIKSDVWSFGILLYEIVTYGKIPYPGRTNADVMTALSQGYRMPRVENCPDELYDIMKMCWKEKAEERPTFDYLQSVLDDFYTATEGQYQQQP
Sequence of Receptor tyrosine-protein kinase erbB-4 (Homo sapiens) (Q15303 whole entry): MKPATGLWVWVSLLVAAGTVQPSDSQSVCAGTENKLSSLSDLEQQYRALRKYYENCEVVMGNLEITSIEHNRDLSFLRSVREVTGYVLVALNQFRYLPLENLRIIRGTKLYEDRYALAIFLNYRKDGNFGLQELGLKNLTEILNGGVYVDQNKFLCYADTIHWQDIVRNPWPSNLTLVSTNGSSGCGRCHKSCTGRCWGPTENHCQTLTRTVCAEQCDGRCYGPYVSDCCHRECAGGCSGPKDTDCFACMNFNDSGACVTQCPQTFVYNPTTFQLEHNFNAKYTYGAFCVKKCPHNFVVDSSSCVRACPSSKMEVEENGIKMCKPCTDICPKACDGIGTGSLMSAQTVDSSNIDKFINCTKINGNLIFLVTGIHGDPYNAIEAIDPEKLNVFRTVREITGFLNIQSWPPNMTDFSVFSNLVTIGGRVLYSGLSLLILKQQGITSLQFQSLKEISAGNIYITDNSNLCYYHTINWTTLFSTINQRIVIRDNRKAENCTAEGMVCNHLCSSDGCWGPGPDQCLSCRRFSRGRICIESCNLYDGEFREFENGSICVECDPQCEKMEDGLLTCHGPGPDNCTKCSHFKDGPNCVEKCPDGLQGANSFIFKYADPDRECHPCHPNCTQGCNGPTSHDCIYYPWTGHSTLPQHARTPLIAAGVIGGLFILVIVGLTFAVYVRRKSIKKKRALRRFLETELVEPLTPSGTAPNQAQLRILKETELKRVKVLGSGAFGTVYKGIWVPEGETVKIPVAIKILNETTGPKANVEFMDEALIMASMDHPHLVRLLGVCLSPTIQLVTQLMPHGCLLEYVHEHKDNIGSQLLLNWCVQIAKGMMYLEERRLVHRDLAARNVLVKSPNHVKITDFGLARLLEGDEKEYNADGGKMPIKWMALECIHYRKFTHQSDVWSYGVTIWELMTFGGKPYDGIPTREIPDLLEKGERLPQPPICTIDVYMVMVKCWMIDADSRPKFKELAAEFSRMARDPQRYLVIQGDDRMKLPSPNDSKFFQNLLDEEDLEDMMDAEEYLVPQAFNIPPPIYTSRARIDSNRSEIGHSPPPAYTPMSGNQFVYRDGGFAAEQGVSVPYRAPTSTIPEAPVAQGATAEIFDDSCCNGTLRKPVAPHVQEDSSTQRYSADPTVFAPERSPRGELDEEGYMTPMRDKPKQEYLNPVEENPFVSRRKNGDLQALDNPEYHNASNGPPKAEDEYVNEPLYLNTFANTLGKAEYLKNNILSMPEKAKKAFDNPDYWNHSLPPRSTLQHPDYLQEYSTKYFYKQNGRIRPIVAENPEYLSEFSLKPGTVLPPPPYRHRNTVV
Sequence of Tyrosine-protein kinase JAK2 (Homo sapiens) (O60674 whole entry): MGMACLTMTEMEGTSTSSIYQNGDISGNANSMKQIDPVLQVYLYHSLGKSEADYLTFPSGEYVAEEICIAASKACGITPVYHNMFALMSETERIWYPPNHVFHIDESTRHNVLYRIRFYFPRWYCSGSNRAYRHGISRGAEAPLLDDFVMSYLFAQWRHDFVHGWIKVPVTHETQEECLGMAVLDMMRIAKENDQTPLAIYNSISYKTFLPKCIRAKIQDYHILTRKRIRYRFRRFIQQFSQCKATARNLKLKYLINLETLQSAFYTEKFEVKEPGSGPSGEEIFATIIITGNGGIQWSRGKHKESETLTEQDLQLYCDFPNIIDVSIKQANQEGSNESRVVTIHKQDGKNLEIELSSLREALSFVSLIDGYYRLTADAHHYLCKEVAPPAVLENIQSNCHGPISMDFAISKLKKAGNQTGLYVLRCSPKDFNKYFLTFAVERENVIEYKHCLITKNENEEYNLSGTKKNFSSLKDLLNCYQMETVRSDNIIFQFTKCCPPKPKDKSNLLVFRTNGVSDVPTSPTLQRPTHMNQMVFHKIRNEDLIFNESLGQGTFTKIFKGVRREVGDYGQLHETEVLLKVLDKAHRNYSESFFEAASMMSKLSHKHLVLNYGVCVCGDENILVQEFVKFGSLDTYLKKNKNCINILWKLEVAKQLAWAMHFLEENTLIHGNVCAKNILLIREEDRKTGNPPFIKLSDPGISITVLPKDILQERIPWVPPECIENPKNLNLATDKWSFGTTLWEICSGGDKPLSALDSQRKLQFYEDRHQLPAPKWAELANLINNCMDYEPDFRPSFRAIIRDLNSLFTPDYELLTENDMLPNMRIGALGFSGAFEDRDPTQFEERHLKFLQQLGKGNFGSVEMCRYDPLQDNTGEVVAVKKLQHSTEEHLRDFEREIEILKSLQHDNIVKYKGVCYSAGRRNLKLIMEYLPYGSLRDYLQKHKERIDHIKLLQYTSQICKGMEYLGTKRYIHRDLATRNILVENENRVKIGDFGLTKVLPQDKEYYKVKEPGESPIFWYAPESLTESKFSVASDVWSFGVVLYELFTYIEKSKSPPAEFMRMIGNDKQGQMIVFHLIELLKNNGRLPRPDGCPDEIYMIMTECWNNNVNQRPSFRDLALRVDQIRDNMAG
Sequence of Homeodomain-interacting protein kinase 4 (Homo sapiens) (Q8NE63 whole entry): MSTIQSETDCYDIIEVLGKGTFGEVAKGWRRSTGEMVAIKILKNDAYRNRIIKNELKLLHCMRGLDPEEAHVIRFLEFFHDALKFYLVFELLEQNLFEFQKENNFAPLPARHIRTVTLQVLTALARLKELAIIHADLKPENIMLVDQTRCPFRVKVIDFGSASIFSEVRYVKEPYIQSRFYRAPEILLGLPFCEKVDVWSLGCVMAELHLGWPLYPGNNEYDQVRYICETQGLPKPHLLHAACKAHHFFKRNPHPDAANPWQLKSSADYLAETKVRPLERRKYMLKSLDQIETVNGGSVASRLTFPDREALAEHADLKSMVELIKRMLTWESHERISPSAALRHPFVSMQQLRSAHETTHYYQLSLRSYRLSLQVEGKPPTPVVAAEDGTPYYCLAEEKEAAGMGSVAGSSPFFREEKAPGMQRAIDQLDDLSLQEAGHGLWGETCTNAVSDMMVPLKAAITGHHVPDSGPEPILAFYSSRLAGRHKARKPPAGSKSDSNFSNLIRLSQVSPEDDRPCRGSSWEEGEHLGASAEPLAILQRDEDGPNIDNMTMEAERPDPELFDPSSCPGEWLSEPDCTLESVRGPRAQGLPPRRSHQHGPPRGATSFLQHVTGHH

Work on `COC(=O)Nc1cc(-c2c(C3CC3)n[nH]c2C)cc2[nH]ncc12` yielded an inhibition [1] of 5.7%, an inhibition [2] of -4.7% and an inhibition [3] of -4.3%. The inhibition [4] was -2.3%, the inhibition [5] was -1% and the inhibition [6] was 12%. For the same compound, the inhibition [7] was -2%, the inhibition [8] was -6.7% and the inhibition [9] was 7.3%. For the same compound, the inhibition [10] was -7.7%, the inhibition [11] was 0.3% and the inhibition [12] was 7.3%. It also gave an inhibition [13] of -4%.

`Cc1n[nH]c(C)c1-c1ccc2c(NC(=O)c3ccc(N4CCN(C)CC4)cc3)n[nH]c2c1` showed an inhibition [14] of -0.7%, an inhibition [15] of -0.7% and an inhibition [16] of 13%.

Compound `Cc1[nH]nc(C2CC2)c1-c1ccc2c(-c3ccc(N4CCN(C)CC4)nc3)n[nH]c2c1` has an inhibition [17] of -2.3%, an inhibition [18] of 3.3% and an inhibition [19] of 10.7%. The inhibition [20] was -3.3%, the inhibition [21] was 3.7% and the inhibition [22] was 2.3%. For the same compound, the inhibition [23] was 1.3%, the inhibition [24] was -2.3% and the inhibition [25] was 2%.
